Reference: US5624923A, “Tricyclic diazepine vasopressin antagonists and oxytocin antagonists” (priority 1995, dated 1997)

What was measured:
oxytocin receptors = biological target: T1, oxytocin receptors (Rattus norvegicus, UniProt P70536); assay: Oxytocin Receptor Binding; conditions: for IC50: 1.0 nM [3H]oxytocin; for inhibition at 10 µM / inhibition at 1.25 µM: [3H]oxytocin
T1 construct: The uteri are dissected out, cleaned of fat and connective tissues; from tissue; host or cells: uterus of DES-treated female Sprague-Dawley rats
T1 sequence (P70536 1-388): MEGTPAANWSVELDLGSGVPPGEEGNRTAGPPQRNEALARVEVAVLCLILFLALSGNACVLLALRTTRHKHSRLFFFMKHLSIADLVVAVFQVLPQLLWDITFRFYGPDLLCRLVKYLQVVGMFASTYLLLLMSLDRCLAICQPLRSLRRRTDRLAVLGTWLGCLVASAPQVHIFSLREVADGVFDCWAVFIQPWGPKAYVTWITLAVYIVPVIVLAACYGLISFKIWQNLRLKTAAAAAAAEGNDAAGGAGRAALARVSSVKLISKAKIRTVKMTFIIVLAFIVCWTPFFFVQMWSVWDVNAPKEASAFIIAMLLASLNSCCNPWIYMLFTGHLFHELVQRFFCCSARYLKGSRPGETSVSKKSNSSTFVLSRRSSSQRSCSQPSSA
Method in brief: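 IC50 is the concentration displacing 50% of 1.0 nM [3H]OT, incubated 60 min at 22 °C in pH 7.4 Tris/MgCl2 buffer plus protease inhibitors, then filtered. Receptor source: uterine membranes from rats given 0.3 mg/kg DES i.m. 18 h earlier. 1.0 uM cold OT defined non-specific binding.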

[1] = biological target: T2, V1 Receptor Subtype in Human Platelet (Homo sapiens, UniProt P37288); assay: Binding to Vasopressin V1 receptor subtype in Human Platelet Membranes; conditions: human platelet membranes;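 note: reported value is IC50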
T2 construct: tissue Hudson Valley Blood Services, Westchester Medical Center, Valhalla, N.Y; host or cells: human platelets (frozen platelet rich plasma)

Rat Hepatic V1 Receptors = biological target: T3, Rat Hepatic V1 Receptors (Rattus norvegicus, UniProt P30560); assay: Binding Assay to Rat Hepatic V1 Receptors; conditions: rat liver membranes; read-out: V1 IC50
T3 construct: Rat liver plasma membranes expressing the vasopressin V1 receptor subtypes; from tissue; host or cells: rat liver plasma membranes
T3 sequence (P30560 whole entry): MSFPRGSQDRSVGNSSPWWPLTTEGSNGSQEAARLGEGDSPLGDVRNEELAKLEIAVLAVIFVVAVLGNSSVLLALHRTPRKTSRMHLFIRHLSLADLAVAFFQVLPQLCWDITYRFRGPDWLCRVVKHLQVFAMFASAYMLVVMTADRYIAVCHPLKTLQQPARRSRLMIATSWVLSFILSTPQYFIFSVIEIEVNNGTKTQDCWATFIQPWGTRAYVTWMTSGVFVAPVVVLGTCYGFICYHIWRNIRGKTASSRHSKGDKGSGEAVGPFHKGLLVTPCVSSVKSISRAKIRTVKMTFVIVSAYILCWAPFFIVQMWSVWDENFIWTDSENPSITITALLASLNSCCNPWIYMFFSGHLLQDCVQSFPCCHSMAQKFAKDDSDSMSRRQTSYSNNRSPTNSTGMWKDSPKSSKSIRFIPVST

T2 sequence (P37288 whole entry): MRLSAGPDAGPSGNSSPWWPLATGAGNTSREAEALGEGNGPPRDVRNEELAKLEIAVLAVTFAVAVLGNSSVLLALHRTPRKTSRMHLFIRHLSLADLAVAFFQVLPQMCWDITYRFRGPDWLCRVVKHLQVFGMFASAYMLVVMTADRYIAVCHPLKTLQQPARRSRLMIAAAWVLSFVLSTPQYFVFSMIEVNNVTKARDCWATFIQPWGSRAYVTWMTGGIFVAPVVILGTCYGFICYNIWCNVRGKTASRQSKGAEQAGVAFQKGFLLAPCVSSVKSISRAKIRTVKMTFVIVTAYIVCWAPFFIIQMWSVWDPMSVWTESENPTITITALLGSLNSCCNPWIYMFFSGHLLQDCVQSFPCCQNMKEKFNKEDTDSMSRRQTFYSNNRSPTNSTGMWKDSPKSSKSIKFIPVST

Row | SMILES | IC50 (oxytocin receptors) | inhibition at 10 µM (oxytocin receptors) | IC50 [1] | inhibition at 1.25 µM (oxytocin receptors) | IC50 (Rat Hepatic V1 Receptors)
1 | O=C(Nc1ccc(C(=O)N2Cc3cccn3Cc3sccc32)cc1)c1ccc(Cl)cc1Cl [Example 274, N-(4-(5H-pyrrolo[1,2-a]thieno-[3,2-e][1,4]diazepin-4(10H)-ylcarbonyl)phenyl]-2,4-dichloro-benzamide] | 1 µM | 95% | 0.24 µM | – | –
2 | O=C(Nc1ccc(C(=O)N2Cc3cccn3Cc3ccccc32)c(Cl)c1)c1ccccc1C(F)(F)F [Example 528, N-[4-(5H-pyrrolo[2,1-c][1,4]benzodiazepin-10(11H)-ylcarbonyl]-3-chlorophenyl]-2-(trifluoromethyl)benzamide] | 1.17 µM | 90% | 0.2 µM | – | –
3 | Cc1cccc(C(=O)Nc2ccc(C(=O)N3Cc4cccn4Cc4ccccc43)c(Cl)c2)c1C [Example 525, N-[4-(5H-pyrrolo[2,1-c][1,4]benzodiazepin-10(11H)-ylcarbonyl]-3-chlorophenyl]-2,3-dimethylbenzamide] | 0.28 µM | 98% | 0.43 µM | – | –
4 | O=C(Nc1ccc(C(=O)N2Cc3cccn3Cc3ccccc32)c(Cl)c1)c1ccc(F)cc1Cl [Example 527, N-[4-(5H-pyrrolo[2,1-c][1,4]benzodiazepin-10(11H)-ylcarbonyl]-3-chlorophenyl]-4-fluoro-2-chlorobenzamide] | 0.45 µM | 92% | 0.026 µM | – | –
5 | COc1cc(C(=O)N2Cc3cccn3Cc3ccccc32)ccc1NC(=O)c1cccc(F)c1C [Example 479, N-[4-(5H-pyrrolo[2,1-c][1,4]benzodiazepin-10(11H)-ylcarbonyl)-2-methoxy-phenyl]-3-fluoro-2-methylbenzamide] | 0.15 µM | 76% | 0.023 µM | – | –
6 | Cc1ccccc1C(=O)Nc1ccc(C(=O)N2Cc3cccn3Cc3ccccc32)cc1Cl [Example 530, N-[4-(5H-Pyrrolo[2,1-c][1,4]benzodiazepin-10(11H)-ylcarbonyl)-2-chlorophenyl]-2-methylbenzamide] | 0.31 µM | 99% | 0.003 µM | – | –
7 | COc1cc(C(=O)N2Cc3cccn3Cc3ccccc32)ccc1NC(=O)c1ccccc1C [Example 477, N-[4-(5H-pyrrolo[2,1-c][1,4]benzodiazepin-10(11H)-ylcarbonyl)-2-methoxy-phenyl]-2-methylbenzamide] | 0.029 µM | – | 0.003 µM | 97% | –
8 | O=C(Nc1ccc(C(=O)N2Cc3cccn3Cc3ccccc32)cc1)c1cc([N+](=O)[O-])ccc1Cl [Example 480, N-[4-(5H-pyrrolo[2,1-c][1,4]benzodiazepin-10(11H)-ylcarbonyl)phenyl]-2-chloro-5-nitrobenzamide] | 0.15 µM | 98% | 0.54 µM | – | –
9 | COc1cc(C(=O)N2Cc3cccn3Cc3ccccc32)ccc1NC(=O)c1ccc(Cl)cc1Cl [Example 478, N-[4-(5H-pyrrolo[2,1-c][1,4]benzodiazepin-10(11H)-ylcarbonyl)-2-methoxy-phenyl]-2,4-dichlorobenzamide] | 0.04 µM | – | 0.032 µM | 97% | –
10 | O=C(Nc1ccc(C(=O)N2Cc3ccnn3Cc3ccccc32)cc1)c1ccc(Cl)cc1Cl [Example 217, N-[4-(4H-Pyrazolo[5,1-c][1,4]benzo-diazepin-5(10H)-ylcarbonyl)phenyl]-2,4-dichlorobenzamide] | 1.2 µM | 87% | 0.19 µM | – | 0.068 µM
